Series [1] deals with T1, Serine/threonine-protein kinase mTOR (Homo sapiens, UniProt P42345).
Description: Inhibition of mTOR (unknown origin) by LANCE Ultra assay
Series [2] addresses T1, Serine/threonine-protein kinase mTOR. The source holds these as a separate data set.
The next series can be described thus: in vitro. The conditions noted are these: human, human liver microsomes.
In series [3] the target is Serine/threonine-protein kinase ATR (Homo sapiens, UniProt Q13535).
Another series concerns the target CYP3A4 (Homo sapiens, UniProt P08684). The series can be described thus: in vitro. The conditions noted are these: human liver microsomes, probe midazolam.

Serine/threonine-protein kinase ATR, sequence (Q13535 whole entry): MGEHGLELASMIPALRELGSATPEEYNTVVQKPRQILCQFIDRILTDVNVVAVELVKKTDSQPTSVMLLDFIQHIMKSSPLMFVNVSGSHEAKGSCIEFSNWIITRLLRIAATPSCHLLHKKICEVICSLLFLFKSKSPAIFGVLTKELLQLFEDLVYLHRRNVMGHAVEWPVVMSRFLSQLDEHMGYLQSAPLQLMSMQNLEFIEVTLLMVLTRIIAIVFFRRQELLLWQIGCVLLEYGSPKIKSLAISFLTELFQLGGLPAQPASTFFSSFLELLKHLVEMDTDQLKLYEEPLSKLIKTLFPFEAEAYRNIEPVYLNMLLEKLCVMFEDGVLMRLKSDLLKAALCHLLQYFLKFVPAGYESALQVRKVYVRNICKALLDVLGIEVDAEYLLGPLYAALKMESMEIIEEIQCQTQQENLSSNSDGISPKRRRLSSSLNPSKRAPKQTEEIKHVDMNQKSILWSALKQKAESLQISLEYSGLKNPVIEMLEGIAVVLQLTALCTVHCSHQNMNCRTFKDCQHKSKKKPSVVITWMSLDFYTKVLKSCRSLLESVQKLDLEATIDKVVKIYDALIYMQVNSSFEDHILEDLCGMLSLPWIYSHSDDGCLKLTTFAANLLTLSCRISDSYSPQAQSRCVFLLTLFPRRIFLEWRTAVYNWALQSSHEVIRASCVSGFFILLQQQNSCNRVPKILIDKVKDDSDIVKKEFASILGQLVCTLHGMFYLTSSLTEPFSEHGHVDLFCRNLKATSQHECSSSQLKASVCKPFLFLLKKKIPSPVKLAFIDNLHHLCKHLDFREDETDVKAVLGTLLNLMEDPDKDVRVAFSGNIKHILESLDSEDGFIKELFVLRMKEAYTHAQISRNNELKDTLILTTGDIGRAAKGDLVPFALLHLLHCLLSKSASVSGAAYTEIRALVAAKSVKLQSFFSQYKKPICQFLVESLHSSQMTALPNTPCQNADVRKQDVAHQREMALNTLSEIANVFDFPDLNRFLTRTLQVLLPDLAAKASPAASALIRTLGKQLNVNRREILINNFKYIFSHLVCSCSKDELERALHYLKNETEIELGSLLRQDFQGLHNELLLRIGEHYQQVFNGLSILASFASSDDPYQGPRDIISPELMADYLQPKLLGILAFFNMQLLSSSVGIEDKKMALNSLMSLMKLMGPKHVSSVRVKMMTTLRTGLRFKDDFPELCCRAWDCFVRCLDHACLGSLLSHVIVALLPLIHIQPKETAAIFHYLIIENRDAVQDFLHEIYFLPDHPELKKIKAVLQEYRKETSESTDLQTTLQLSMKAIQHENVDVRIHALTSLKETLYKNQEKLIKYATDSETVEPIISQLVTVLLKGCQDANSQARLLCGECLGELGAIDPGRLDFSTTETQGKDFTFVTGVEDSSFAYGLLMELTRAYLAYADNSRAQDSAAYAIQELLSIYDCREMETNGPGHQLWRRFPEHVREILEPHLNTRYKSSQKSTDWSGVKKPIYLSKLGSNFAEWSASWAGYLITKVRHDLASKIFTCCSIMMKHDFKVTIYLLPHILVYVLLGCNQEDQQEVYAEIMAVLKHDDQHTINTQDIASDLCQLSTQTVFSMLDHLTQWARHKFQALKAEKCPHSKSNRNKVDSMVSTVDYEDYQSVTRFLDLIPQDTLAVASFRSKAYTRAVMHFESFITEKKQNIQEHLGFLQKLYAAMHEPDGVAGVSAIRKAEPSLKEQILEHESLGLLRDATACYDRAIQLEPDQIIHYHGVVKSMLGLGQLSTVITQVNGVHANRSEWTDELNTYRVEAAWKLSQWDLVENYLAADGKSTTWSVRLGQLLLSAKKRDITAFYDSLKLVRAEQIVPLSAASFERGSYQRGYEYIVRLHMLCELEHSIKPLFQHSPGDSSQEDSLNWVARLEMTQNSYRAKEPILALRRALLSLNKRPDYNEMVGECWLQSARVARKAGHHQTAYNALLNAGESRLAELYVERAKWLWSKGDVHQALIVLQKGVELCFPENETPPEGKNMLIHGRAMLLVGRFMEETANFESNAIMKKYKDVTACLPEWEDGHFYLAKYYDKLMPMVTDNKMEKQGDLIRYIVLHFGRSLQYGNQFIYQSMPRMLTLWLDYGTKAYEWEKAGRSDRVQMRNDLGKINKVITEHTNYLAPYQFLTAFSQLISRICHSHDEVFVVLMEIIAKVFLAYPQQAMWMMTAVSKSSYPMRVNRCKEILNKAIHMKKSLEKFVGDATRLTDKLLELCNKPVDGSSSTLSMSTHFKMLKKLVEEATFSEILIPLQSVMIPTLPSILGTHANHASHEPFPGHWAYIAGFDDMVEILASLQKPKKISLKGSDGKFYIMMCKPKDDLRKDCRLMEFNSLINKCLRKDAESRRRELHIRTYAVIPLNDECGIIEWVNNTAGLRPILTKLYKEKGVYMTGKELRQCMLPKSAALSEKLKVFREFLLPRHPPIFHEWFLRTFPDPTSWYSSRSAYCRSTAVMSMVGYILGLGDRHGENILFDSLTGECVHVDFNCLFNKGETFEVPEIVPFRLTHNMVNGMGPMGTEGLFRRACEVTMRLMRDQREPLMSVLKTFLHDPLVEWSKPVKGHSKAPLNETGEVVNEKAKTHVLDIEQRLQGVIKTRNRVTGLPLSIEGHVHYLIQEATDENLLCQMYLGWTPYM
CYP3A4, sequence (P08684 whole entry): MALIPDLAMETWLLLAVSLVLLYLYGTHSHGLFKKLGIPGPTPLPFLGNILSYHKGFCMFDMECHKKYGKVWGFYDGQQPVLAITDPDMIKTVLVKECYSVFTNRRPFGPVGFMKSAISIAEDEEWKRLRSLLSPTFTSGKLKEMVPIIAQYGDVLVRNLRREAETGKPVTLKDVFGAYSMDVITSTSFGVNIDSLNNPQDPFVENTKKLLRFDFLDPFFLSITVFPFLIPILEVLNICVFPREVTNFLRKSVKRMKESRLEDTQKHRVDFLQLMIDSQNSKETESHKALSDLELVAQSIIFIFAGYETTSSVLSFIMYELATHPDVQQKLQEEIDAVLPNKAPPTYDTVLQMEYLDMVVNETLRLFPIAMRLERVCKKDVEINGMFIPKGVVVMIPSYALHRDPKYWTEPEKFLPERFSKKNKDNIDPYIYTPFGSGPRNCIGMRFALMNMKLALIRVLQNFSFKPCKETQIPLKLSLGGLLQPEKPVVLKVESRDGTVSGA

As for `C[C@@H]1COCCN1c1cc(N=S(C)(C)=O)nc(-c2ccnc3[nH]ccc23)n1`, the IC50 in series [1] was determined as 0.419 µM; in series [2], 2.4 µM.
With `C[C@@H]1COCCN1c1cc(N=S(C)(=O)C2COC2)nc(-c2ccnc3[nH]ccc23)n1` (mixture of isomers), the IC50 worked out at 0.307 µM in series [1] and 2.19 µM in series [2].
Turning to `C[C@@H]1COCCN1c1cc(N2CCCN(C)S2(=O)=O)nc(-c2ccnc3[nH]ccc23)n1`, the IC50 in series [1] came out at 0.081 µM; in series [2], 0.42 µM.
In the case of `CC[S@@](C)(=O)=Nc1cc(N2CCOC[C@H]2C)nc(-c2ccnc3[nH]ccc23)n1`, the IC50 in series [1] worked out at 1.12 µM; in series [2] it was 1.71 µM.
As for `C[C@@H]1COCCN1c1cc(N=S(C)(C)=O)nc(-c2ccnc(N)c2)n1`, the IC50 in series [1] amounted to 4.78 µM; in series [2], 15.4 µM.
As for `C[C@@H]1COCCN1c1cc(N=S(C)(C)=O)nc(-c2ccnc3[nH]ccc23)c1`, the values for the IC50 in series [1] and in series [2] were 1.6 µM and 8.5 µM, respectively.
`C[C@@H]1COCCN1c1cc(N=S(C)(=O)C2CCOCC2)nc(-c2ccnc3[nH]ccc23)n1` (mixture of isomers) gave an IC50 in series [2] of 6.36 µM.
Regarding `COc1cc(-c2nc(N=[S@](C)(=O)C3COC3)cc(N3CCOC[C@H]3C)n2)cc(N)n1`, the IC50 in series [1] came to 2.98 µM; in series [2], 8.24 µM. For the same compound, in the series “in vitro”, the CLint scaled at 0.75 h, 1 µM worked out at 2.4 mL/min/kg.
Taken in the same sequence, the figures for `COc1cc(-c2nc(N=[S@@](C)(=O)C3COC3)cc(N3CCOC[C@H]3C)n2)cc(N)n1` were 0.421 µM, 5.25 µM and 13 mL/min/kg.
On to `C[C@@H]1COCCN1c1cc(C2CCN(S(C)(=O)=O)CC2)nc(-c2ccnc3[nH]ccc23)n1`, for which the values for the IC50 in series [1] and in series [2] were 0.217 µM and 0.496 µM, respectively.
As to `C[C@@H]1COCCN1c1cc(N=[S@](C)(=O)C2CC2)nc(-c2ccnc3[nH]ccc23)n1`, the IC50 in series [1] is 0.324 µM; in series [2], 2.38 µM.
In the case of `C[C@@H]1COCCN1c1cc(N=[S@@](C)(=O)C2CC2)nc(-c2ccnc3[nH]ccc23)c1`, the figures for the IC50 in series [1] and in series [2] were 1.19 µM and 8.2 µM, respectively.
The compound `Cc1cc(-c2nc(N=S(C)(C)=O)cc(N3CCOC[C@H]3C)n2)cc(N)n1` came in with an IC50 in series [2] above 10 µM.
In the case of `C[C@@H]1COCCN1c1cc(C2CCCS2(=O)=O)nc(-c2ccnc3[nH]ccc23)n1` (mixture of isomers), the IC50 in series [1] was 0.274 µM; in series [2], 3.9 µM.
Regarding `C[C@@H]1COCCN1c1cc(N=[S@](C)(=O)C2CC2)nc(-c2ccnc3[nH]ccc23)c1`, the IC50 in series [1] came to 2.77 µM; in series [2] it was 9.65 µM.
With `C[C@@H]1COCCN1c1cc(N=S(C)(C)=O)nc(-c2ccnc(N)c2)c1`, the results for the half-maximal inhibitory concentration (IC50) in series [2] and in series [3] were above 10 µM and 0.875 µM, respectively.
In series [2], `C[C@@H]1COCCN1c1cc(-c2ccnc3[nH]ccc23)nc(N=S(C)(C)=O)n1` showed a 50% inhibitory concentration (IC50) above 10 µM.
As to `CC[S@](C)(=O)=Nc1cc(N2CCOC[C@H]2C)nc(-c2ccnc3[nH]ccc23)n1`, the IC50 came out at 0.891 µM in series [1] and 2.16 µM in series [2].
In turn, `Cc1cc2c(-c3nc(N=S(C)(C)=O)cc(N4CCOC[C@H]4C)n3)ccnc2[nH]1` registered an inhibition at 10 µM at CYP3A4 of 56%. Besides, the values for the IC50 in series [1] and in series [2] were 0.502 µM and 3.34 µM, respectively.
Turning to `COc1cc(-c2nc(N=[S@@](C)(=O)C3CC3)cc(N3CCOC[C@H]3C)n2)cc(N)n1`, the IC50 is 0.866 µM in series [1] and 7 µM in series [2]. Further, the CLint scaled at 0.75 h, 1 µM in the series “in vitro” turned out to be 7.1 mL/min/kg.
For `C[C@@H]1COCCN1c1cc(C2CCCN(S(C)(=O)=O)C2)nc(-c2ccnc3[nH]ccc23)n1` (mixture of isomers), the half-maximal inhibitory concentration (IC50) amounted to 0.113 µM in series [1], 1.3 µM in series [2] and 0.134 µM in series [3].
On to `COc1cc(-c2nc(N=S(C)(C)=O)cc(N3CCOC[C@H]3C)n2)cc(N)n1`, for which the half-inhibitory concentration (IC50) in series [1] was found to be 2.21 µM; in series [2], 8.26 µM.
The matching figures for `C[C@@H]1COCCN1c1cc(N=[S@@](C)(=O)C2CC2)nc(-c2ccnc3[nH]ccc23)n1`: 0.165 µM and 1.66 µM.
